Data set [1] has as its system SARS-CoV-2 S protein-mediated cell–cell fusion. The data set is classed as cell-based, human.
A short description of data set [2]: CD thermal denaturation scans (midpoint Tm). In kind it is physicochemical. As to conditions: CC of the peptide with N8 compared with N8:N7. As to the method: CD measurements were performed with a ChiraScan instrument (Applied Photophysics, UK) equipped with a Peltier thermal control block (Melcor, NJ, Laird Technologies). The final concentrations of individual peptides were […] in Tris buffer (50 mM Tris–HCl, pH 7.5, 150 mM NaCl, and 1 mM TCEP). The mixture also contained a 20 μM concentration of each peptide. All experiments were performed in a quartz cuvette (Hellma, Germany) with a path length of 1 mm. CD spectra were measured every 1 nm from 200 to 280 nm with a bandwidth of 1 nm and 0.5 s integration time. The results are the average of three scans. Temperature denaturation scans were performed by measuring the CD signal at 222 nm from 0 to 95 °C in 1 °C increments at a rate of 1 °C/min. The actual sample temperatures were measured directly in the cuvette using a temperature probe. The CD spectrum was measured at 95 °C and at 20 °C after rapid cooling.

Data set [3] has as its system reconstituted CC-split luciferase in HEK293T cells. As to the kind of experiment: CC-split luciferase displacement by externally added synthetic displacer peptide. The data set is classed as cell-based, human. As to conditions: for Displacement of cognate peptide from the N8:N7 split luciferase by added synthetic peptide: nLuc:N8 and cLuc:N7, peptide 0–50 µM in DOTAP for 2 h (Fig. S6B).

In data set [4] the test system is CC-split transcription factor (TALE-A:CC with CC:VP16) in HEK293T cells. As to the kind of experiment: CC-split transcription factor reconstitution and displacement (TALE10x-Pmin-fLuc reporter). In kind it is cell-based, human. As to conditions: TALE-A:N8 with CC:VP16, displacer plasmid 0-50 or 0–70 ng, 48 h after transfection.
Data set [5] relates to reconstituted CC-split luciferase in HEK293T cells. As to the kind of experiment: CC-split luciferase attenuation by co-expressed displacer peptide. The data set is classed as cell-based, human.
A short description of data set [6]: SEC-MALS multimerization state. As to conditions: peptides 200 µM in 50 mM Tris–HCl pH 7.5, 150 mM NaCl, 10% glycerol. The data set is classed as physicochemical. The method, then:
A Waters e2695 HPLC system coupled with a 2489 UV detector (Waters, MA) and a Dawn 8 + multiple-angle light scattering detector (Wyatt, CA) was used for SEC-MALS experiments. Peptides (200 μM in 50 mM Tris–HCl with a pH of 7.5, 150 mM NaCl, and 10% glycerol) were filtered using Durapore 0.1 μm centrifuge filters (Merck Millipore, Ireland) before being injected onto the Biosep SEC-S2000 column (Phenomenex, CA), with the exception of the peptide N2, which was injected in a Superdex 30 increase column (GE, IL). The mobile phases used for the separations were 50 mM Tris–HCl, pH 7.5, 150 mM NaCl and 50 mM Tris–HCl, pH 7.5, 500 mM NaCl for the Biosep SEC-S2000 column and the Superdex 30 increase column, respectively. The injection volume was 50 μl, and the flow rate was 0.5 ml/min. Data analysis was carried out with Astra 7.0 software (Wyatt, CA) utilizing the theoretical extinction coefficient calculated by ProtParam.
(In general: In gel filtration, larger molecules generally elute earlier.)

The target of a further data set is T1, N8 (synthetic construct, N-terminal acetylation; C-terminal amidation).
T1 chain: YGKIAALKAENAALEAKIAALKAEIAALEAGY
As to the kind of experiment: ITC. In general terms: Isothermal titration calorimetry measures the heat released or taken up as one component is titrated into another.

Data set [7] concerns the molecule itself. Description: SEC-MALS; peptides 200 µM, alone or as equimolar mixture; Biosep SEC-S2000 column; 50 mM Tris-HCl pH 7.5, 150 mM NaCl.
For data set [8], the target named is T2, P6A (synthetic construct, N-terminal acetylation; C-terminal amidation).
T2 chain: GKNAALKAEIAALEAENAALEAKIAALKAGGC
Description: ITC.

Data set [9] addresses T3, P6A (N-terminal acetylation; C-terminal amidation).
T3 chain: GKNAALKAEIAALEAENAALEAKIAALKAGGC
As to the kind of experiment: CD thermal denaturation; 20 µM each peptide; CD signal at 222 nm, 0 to 95 °C; 50 mM Tris-HCl pH 7.5, 150 mM NaCl, 1 mM TCEP; midpoint Tm from a thermodynamic model fit. As to conditions: both partners purified.

For data set [10], the target named is T4, P8A (synthetic construct, N-terminal acetylation; C-terminal amidation).
T4 chain: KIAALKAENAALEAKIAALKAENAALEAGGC
Description: ITC.

Data set [11] deals with T5, P8A (N-terminal acetylation; C-terminal amidation).
T5 chain: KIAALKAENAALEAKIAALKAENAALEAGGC
As to the kind of experiment: CD thermal denaturation; 20 µM each peptide; CD signal at 222 nm, 0 to 95 °C; 50 mM Tris-HCl pH 7.5, 150 mM NaCl, 1 mM TCEP; midpoint Tm from a thermodynamic model fit. As to conditions: both partners purified.

In another data set the target is T6, N6 (synthetic construct, N-terminal acetylation; C-terminal amidation).
T6 chain: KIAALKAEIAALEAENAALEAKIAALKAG
As to the kind of experiment: ITC.

Usually Kd stands for a measure of binding affinity in units of concentration. What is called stoichiometry N is a count of units in the complex or per binding partner. The Tm is the temperature at the midpoint of the melting transition.

Where a name gives a salt, the structure may show the parent alone.

Turning to `CN(C)C(=O)COC(=O)Cc1ccc(OC(=O)c2ccc(NC(=N)N)cc2)cc1` [Camostat, camostat mesylate], the “Syncytia formation, luciferase activity of mixture of donor and acceptor cells” value in [1] was “reduced the amount of formed syncytia”.

For the molecule “EIQQLEE KNSQLKQ EISQLEE KNQELKY G [P7SN, reference compound]”, the “midpoint Tm of N-P-CCs lower than N-CCs” value in data set [2] was “more than 10 °C”. The “Displacement of cognate peptide from the N8:N7 split luciferase by added synthetic peptide” value (from here on “Displacement of cognate peptide”) in data set [3] (HEK293T) was “failed to displace the cognate peptide from the N8:N7 split luciferase as efficiently”.

In the case of “SPED EIQALEE KNAQLKQ EIAALEE KNQALKY G [P7, reference compound]”, the “midpoint Tm of N-P-CCs lower than N-CCs” value in [2] was “more than 10 °C”. Besides, the “Displacement of cognate peptide” value in data set [3] (HEK293T) is reported as “failed to displace the cognate peptide from the N8:N7 split luciferase as efficiently”. In addition, in data set [4], the “Attenuation of CC-split transcription activator assembly by co-expressed NLS-tagged CC-displacer peptide” value (from here on “Attenuation”) was “failed to prevent the reconstitution of a functional transcription as efficiently”.

Take “Y EIAALEA KIAALKA KNAALKA EIAALEA GC [N5]”: the “Displacement of cLuc:P5 from the N6:P5 split luciferase by added synthetic peptide” value in data set [3] (HEK293T, nLuc:N6 and cLuc:P5, […]) is reported as “effectively displaced cLuc:P5”. Also, the “N6:P5 split luciferase activity with co-expressed displacer peptide” value in [5] was “attenuated N6:P5 split luciferase activity”.

In the case of “Y EIAALEA KNAALKA EIAALEA KIAALKA GC [N7]”, the “Luciferase activity of CC-split luciferase after addition of synthetic CC-displacer peptide” value in data set [3] ([…], peptide in DOTAP for 2 h, 48 h after transfection) was “debilitated CC-split luciferase assembly most efficiently”. Besides, in data set [5] (HEK293T, plasmid expressing displacer 0, 80, 155 ng, 48 h after transfection), the “Competition of co-expressed displacer peptide with N8:N7 CC split luciferase” value is listed as “failed to effectively compete”. Further, in [4], the “Attenuation” value is on record as “weakened the transcription activator assembly most efficiently”.

For the molecule “YG EIAALEA KNAALKA EIAALEA KNAALKA GC [P7A]”, the “midpoint Tm of N-P-CCs lower than N-CCs” value in data set [2] was “more than 10 °C”. For the same molecule, in data set [6], the “Multimerization state in solution” value was “monomers”. For the same molecule, the “Displacement of cognate peptide” value in [3] (HEK293T) is “failed to displace the cognate peptide from the N8:N7 split luciferase as efficiently”. Also, the “Attenuation” value in [4] was “failed to prevent the reconstitution of a functional transcription as efficiently”.

Regarding “YG ENAALEA KIAALKA KNAALKA EIAALEA GC [P5A]”, the “Multimerization state in solution” value in [6] is on record as “monomers”.

In the case of “YG KIAALKA ENAALEA KIAALKA ENAALEA GGC [P8A]”, the “Multimerization state in solution” value in [6] is “monomers”.

Take “YG KNAALKA EIAALEA ENAALEA KIAALKA GGC [P6A]”: the “Multimerization state in solution” value in data set [6] is on record as “monomers”.

For Ac-GEIAALEAKNAALKAEIAALEAKIAALKAGY-NH2 [N7], in the data set with N8, binding was characterised by a dissociation constant (Kd) of 10 nM. Moreover, the “stoichiometry N” value in [7] amounted to 2.

For the molecule Ac-ENAALEAKIAALKAKNAALKAEIAALEA-NH2 [P5A], the Kd in the data set with P6A [8] came out at 4 nM. For the same molecule, the Tm with P6A [9] was 57 °C.

In the case of Ac-GEIAALEAKNAALKAEIAALEAKNAALKAGC-NH2 [P7A], in the data set with P8A [10], the Kd was determined as 19 nM. Also, the Tm with P8A [11] worked out at 64 °C.

As for Ac-YGKIAALKAENAALEAKIAALKAEIAALEAGY-NH2 [N8], the “stoichiometry N” value in [7] stood at 2.

As for Ac-KIAALKAEIAALEAENAALEAKIAALKAG-NH2 [N6], the “stoichiometry N” value in [7] worked out at 2.

Take Ac-GEIAALEAKIAALKAKNAALKAEIAALEAGY-NH2 [N5]: the Kd with N6 was 1 nM. Also, in data set [7], the “stoichiometry N” value is 2.
